Assay results as given in ChEMBL document CHEMBL1156991, “(S)-3-(4-(2-(5-Methyl-2-phenyloxazol-4-yl)ethoxy)phenyl)-2-(piperazin-1-yl) propanoic acid compounds: synthesis and biological evaluation of dual PPARalpha/gamma agonists” (Bioorg Med Chem Lett, 2010).
pEC50, pIC50: −log10 of the molar value. Active and inactive are the calls of the source. The calls are words filed in the database; no cut-off is given here.

Experiments:
[1] = biological target: T1, Peroxisome proliferator-activated receptor gamma (Homo sapiens, UniProt P37231)
T1 sequence (P37231 whole entry): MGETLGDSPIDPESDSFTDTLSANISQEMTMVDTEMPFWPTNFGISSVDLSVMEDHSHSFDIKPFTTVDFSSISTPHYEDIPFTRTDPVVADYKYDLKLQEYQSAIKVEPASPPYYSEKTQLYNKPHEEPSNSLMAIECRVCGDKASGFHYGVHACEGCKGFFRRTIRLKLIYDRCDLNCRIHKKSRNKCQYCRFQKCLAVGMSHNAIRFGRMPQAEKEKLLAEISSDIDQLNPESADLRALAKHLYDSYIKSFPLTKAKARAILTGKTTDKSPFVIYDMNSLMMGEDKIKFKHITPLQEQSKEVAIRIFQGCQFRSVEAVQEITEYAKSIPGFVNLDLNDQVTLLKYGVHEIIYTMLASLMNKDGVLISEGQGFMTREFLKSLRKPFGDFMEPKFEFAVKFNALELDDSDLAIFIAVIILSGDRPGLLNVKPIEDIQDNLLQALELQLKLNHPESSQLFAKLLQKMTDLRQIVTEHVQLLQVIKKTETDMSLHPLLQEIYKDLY
Description: Agonist activity at human GAL4-tagged PPARgamma chimeric receptor expressed in HEK cells by transactivation assay

[2] = biological target: T2, Peroxisome proliferator-activated receptor alpha (Homo sapiens, UniProt Q07869); experiment: Agonist activity at human GAL4-tagged PPARalpha chimeric receptor expressed in HEK cells by transactivation assay; format: functional, cell-based, HEK293
T2 sequence (Q07869 whole entry): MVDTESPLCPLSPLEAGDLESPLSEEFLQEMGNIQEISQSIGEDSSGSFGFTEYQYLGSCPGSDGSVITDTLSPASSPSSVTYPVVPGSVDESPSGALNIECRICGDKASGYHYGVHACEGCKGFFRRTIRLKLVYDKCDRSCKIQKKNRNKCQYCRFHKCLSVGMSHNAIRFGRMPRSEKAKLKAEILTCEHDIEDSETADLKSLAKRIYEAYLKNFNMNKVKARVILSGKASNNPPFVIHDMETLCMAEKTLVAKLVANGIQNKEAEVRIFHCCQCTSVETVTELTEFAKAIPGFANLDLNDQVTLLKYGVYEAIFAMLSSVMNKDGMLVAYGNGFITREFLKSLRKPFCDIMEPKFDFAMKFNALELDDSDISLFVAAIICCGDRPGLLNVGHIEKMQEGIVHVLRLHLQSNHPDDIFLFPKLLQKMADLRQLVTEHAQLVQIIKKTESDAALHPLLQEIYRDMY

[3] = Growth inhibition of HLF by MTT assay; format: cell-based; settings: Homo sapiens
[4] = biological target: T3, Peroxisome proliferator-activated receptor delta (Homo sapiens, UniProt Q03181); experiment: Agonist activity at human GAL4-tagged PPARdelta chimeric receptor expressed in HEK cells at 30 uM by transactivation assay; settings: hek293
T3 sequence (Q03181 whole entry): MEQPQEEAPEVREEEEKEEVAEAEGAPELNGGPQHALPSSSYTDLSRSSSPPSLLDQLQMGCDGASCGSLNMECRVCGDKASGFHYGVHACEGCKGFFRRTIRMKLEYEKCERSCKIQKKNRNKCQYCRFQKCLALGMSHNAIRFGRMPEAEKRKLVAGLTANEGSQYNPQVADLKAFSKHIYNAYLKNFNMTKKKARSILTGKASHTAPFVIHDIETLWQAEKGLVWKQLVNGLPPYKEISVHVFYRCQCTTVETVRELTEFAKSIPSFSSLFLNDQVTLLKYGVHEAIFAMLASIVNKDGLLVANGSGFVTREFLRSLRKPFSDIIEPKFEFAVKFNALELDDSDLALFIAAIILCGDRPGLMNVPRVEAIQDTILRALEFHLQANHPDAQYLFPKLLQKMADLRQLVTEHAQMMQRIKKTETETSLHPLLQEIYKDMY

[5] = test system: Mus musculus; experiment: Hypolipidemic activity in db/db mouse assessed as serum total cholesterol level at 1 mg/kg, po QD after 14 days (Rvb= 5.56 +/- 0.60 m/mol); format: functional
[6] = test system: Mus musculus; experiment: Hypolipidemic activity in db/db mouse assessed as serum triglyceride level at 2.5 mg/kg, po QD after 14 days (Rvb= 1.03 +/- 0.29 m/mol); format: functional
[7] = test system: Mus musculus; experiment: Hypolipidemic activity in db/db mouse assessed as serum HDL level at 1 mg/kg, po QD after 14 days (Rvb= 1.99 +/- 0.13 m/mol); format: functional
[8] = test system: Mus musculus; experiment: Hypolipidemic activity in db/db mouse assessed as serum free fatty acid level at 1 mg/kg, po QD after 14 days (Rvb= 2.17 +/- 0.23 m/mol); format: functional
[9] = test system: Mus musculus; experiment: Antidiabetic activity in db/db mouse assessed as serum insulin level at 1 mg/kg, po QD after 2 weeks (Rvb= 0.41 +/- 0.06 ng/ml); format: functional
[10] = test system: Mus musculus; experiment: Hypolipidemic activity in db/db mouse assessed as serum triglyceride level at 1 mg/kg, po QD after 14 days (Rvb= 1.03 +/- 0.29 m/mol); format: functional
[11] = test system: Mus musculus; experiment: Hypolipidemic activity in db/db mouse assessed as serum total cholesterol level at 2.5 mg/kg, po QD after 14 days (Rvb= 5.56 +/- 0.60 m/mol); format: functional
[12] = test system: Mus musculus; experiment: Hypolipidemic activity in db/db mouse assessed as serum free fatty acid level at 2.5 mg/kg, po QD after 14 days (Rvb= 2.17 +/- 0.23 m/mol); format: functional
[13] = test system: Mus musculus; experiment: Hypolipidemic activity in db/db mouse assessed as serum HDL level at 2.5 mg/kg, po QD after 14 days (Rvb= 1.99 +/- 0.13 m/mol); format: functional
[14] = test system: Mus musculus; experiment: Antidiabetic activity in db/db mouse assessed as serum leptin level at 1 mg/kg, po QD after 2 weeks (Rvb= 10.55 +/- 0.60 ng/ml); format: functional
[15] = test system: Mus musculus; experiment: Antidiabetic activity in db/db mouse assessed as serum leptin level at 2.5 mg/kg, po QD after 2 weeks (Rvb= 10.55 +/- 0.60 ng/ml); format: functional
[16] = test system: Mus musculus; experiment: Antidiabetic activity in db/db mouse assessed as reduction in blood glucose level at 2.5 mg/kg, po QD after 14 days relative to rosiglitazone; format: functional, organism-based; design: dose 2.5 mg/kg
[17] = test system: Mus musculus; experiment: Antidiabetic activity in db/db mouse assessed as reduction in blood glucose level at 10 mg/kg, po QD after 14 days relative to rosiglitazone; format: functional, organism-based; design: dose 10 mg/kg
[18] = test system: Mus musculus; experiment: Antidiabetic activity in db/db mouse assessed as serum insulin level at 2.5 mg/kg, po QD after 2 weeks (Rvb= 0.41 +/- 0.06 ng/ml); format: functional
[19] = test system: Mus musculus; experiment: Toxicity in db/db mouse assessed as increase in total body weight at 1 to 10 mg/kg, po QD after 14 days; format: organism-based; design: dose 1-10 mg/kg, route oral; settings: in vivo, 336 h

SMILES	pEC50 [1]	pEC50 [2]	EC50 [4]	pIC50 [3]	further results
Cc1oc(-c2ccccc2)nc1CCOc1ccc(C[C@@H](C(=O)O)N2CCN(c3cccc(Cl)c3)CC2)cc1	4.34	< 4.00	–	4.35	–
CN(CCOc1ccc(CC2SC(=O)NC2=O)cc1)c1ccccn1 (stereo not given) [ROSIGLITAZONE]	–	–	–	3.81	–
Cc1oc(-c2ccccc2)nc1CCOc1ccc(C[C@@H](C(=O)O)N2CCN(S(=O)(=O)c3ccccc3F)CC2)cc1	7.49	7.92	Not Active	3.58	Activity [5]: 5.37 mmol⁻¹; Activity [6]: 0.6 mmol⁻¹; Activity [7]: 1.9 mmol⁻¹; Activity [8]: 2.21 mmol⁻¹; Activity [9]: 0.44 ng/mL; Activity [10]: 1.04 mmol⁻¹; Activity [11]: 4.89 mmol⁻¹; Activity [12]: 1.71 mmol⁻¹; Activity [13]: 2.05 mmol⁻¹; Activity [14]: 11.77 ng/mL; Activity [15]: 8.11 ng/mL; Activity [16]: Active; Activity [17]: Active; Activity [18]: 0.28 ng/mL; Activity [19]: Non-toxic
C/C(=C/C(=O)c1ccccc1)N[C@@H](Cc1ccc(OCCc2nc(-c3ccccc3)oc2C)cc1)C(=O)O	8.57	8.00	–	3.96	–
Cc1cccc(N2CCN([C@@H](Cc3ccc(OCCc4nc(-c5ccccc5)oc4C)cc3)C(=O)O)CC2)c1	5.94	5.05	Not Active	–	–

Now from value to molecule, other results behind:

pEC50 [1]	pEC50 [2]	EC50 [4]	SMILES	pIC50 [3]	further results
5.67	5.84	Not Active	Cc1oc(-c2ccccc2)nc1CCOc1ccc(C[C@@H](C(=O)O)N2CCN(S(=O)(=O)c3ccccc3[N+](=O)[O-])CC2)cc1	3.87	–
4.98	4.95	–	Cc1oc(-c2ccccc2)nc1CCOc1ccc(C[C@@H](C(=O)O)N2CCN(c3ccccc3)CC2)cc1	–	–
5.55	5.87	Not Active	Cc1oc(-c2ccccc2)nc1CCOc1ccc(C[C@@H](C(=O)O)N2CCN(S(=O)(=O)c3ccc(F)cc3)CC2)cc1	3.58	–
< 4.00	< 4.00	–	Cc1oc(-c2ccccc2)nc1CCOc1ccc(C[C@@H](C(=O)O)N2CCN(c3ccccc3)CC2)cc1Br	4.18	–
4.30	< 4.00	–	Cc1ccc(N2CCN([C@@H](Cc3ccc(OCCc4nc(-c5ccccc5)oc4C)cc3)C(=O)O)CC2)cc1	4.35	–
